Assay results as given in patent US10376512B1, “Crystal of aniline pyrimidine compound of trifluoroethyl substituted indole and salt thereof” (CHIA TAI TIANQING PHARMACEUTICAL GROUP CO., LTD., priority 2018, dated 2019).

Assay: Stability test for crystals under accelerated conditions (light, high temperature, high humidity)
Assay type: physicochemical
Conditions: light 5000 Lx±500 Lx; high temperature 60° C.±2° C.; high humidity 75% RH±5% RH; samples taken on the 5th, 10th and 30th day
Method: The stability of the crystal according to the disclosure may be detected by placing the crystal in a high temperature, a high humidity, or a lighting condition. 40-60° C. may be selected for the high temperature, the relative humidity of 75%-92.5% RH may be selected for the high humidity condition, and 5000 Lux may be selected for the lighting condition. The crystal stability may be evaluated by investigating a plurality of data, such as content, total content of impurities, or water content, of the sample, and comprehensively evaluating the parameters according to the properties of the product.
The stability of the crystal according to the disclosure was investigated under accelerated test conditions according to the Guiding Principles for Stability Test of Crude Drugs and Pharmaceutical Preparations. The stabilities of the crystals obtained in Examples 1-8 were tested in a light environment at 5000 Lx±500 Lx, a high temperature environment at 60° C.±2° C., and a high humidity environment at 75% RH±5% RH, respectively. Samples were taken on the 5th day, the 10th day, and the 30th day, respectively, and the appearance properties, moisture contents, and total impurities of related substances of the samples were recorded for comparison with the initial data.

C=CC(=O)Nc1cc(Nc2nccc(-c3cn(CC(F)(F)F)c4ccccc34)n2)c(OC)cc1N(C)CCN(C)C [Example 3]
stability (appearance properties, moisture contents, total impurities of related substances compared with the initial data): better stability
